Earlier results as cited in paper PMC9377007, “An Unexpected Deuterium-Induced Metabolic Switch in Doxophylline” (ACS Medicinal Chemistry Letters, 2022).

Tests used:
[1] = test system: PDE-III and IV isozymes; parameters: method as in PMID 1328102; conditions: ref [30]; cited from earlier work
[2] = test system: antibronchospastic and antiasthmatic effects; parameters: method as in PMID 1652045; conditions: ref [31]; cited from earlier work

SMILES | inhibition of PDE-III and IV isozymes [1] | antibronchospastic and antiasthmatic effects relative to doxophylline [2]
Cn1c(=O)c2c(ncn2CC(=O)O)n(C)c1=O [T-COOH, 7-theophylline acetic acid] | specific inhibition | 
Cn1c(=O)c2c(ncn2CCO)n(C)c1=O [etophylline, 7-hydroxyethyltheophylline] |  | significantly less active than doxophylline
